Assays:
[1] = test system: mild-to-moderate Alzheimer's disease patients; experiment: EEG/ERP (P300) target detection task, Phase 2a study; assay type: in vivo, human; details: for False Alarms / P300 Amplitude / Task Accuracy / Reaction Time: mean ± SEM; for False Alarms: baseline 3.4 ± 1.0, healthy control 1.1 ± 0.2; for P300 Amplitude: baseline 5.99 ± 0.58, healthy control 7.36 ± 0.39; for Task Accuracy: baseline 83.8 ± 3.8, healthy control 94.1 ± 1.1; for Reaction Time: baseline 559.0 ± 24.0, healthy control 458.6 ± 11.4
Description: An event-related potential (ERP) is the measured brain response that is the direct result of a specific sensory, cognitive, or motor event. More formally, it is any stereotyped electrophysiological response to a stimulus. The study of the brain in this way provides a noninvasive means of evaluating brain functioning. ERPs are measured by means of electroencephalography (EEG). Particular efficacy data measurements addressed cognition and function. Cognitive measures include MMSE and Cogstate battery. Functional measures were ADCS-ADL. Supportive Biomarker Measurements include ERP (P300): fundamental measures of synaptic network performance and target engagement. ERP target detection task measures is a direct measure of attention, speed of brain processing, and simple functional performance. 2-73 Rescues Cognitive Effects on a Cellular Level on the subjects of the Phase 2a study. […] 2-73 effect on synaptic networks and effect on cognition and behavior at daily doses of 10 mg-50 mg is shown. ERP peak measures (P300) are shown. The P300 (P3) wave is an event related potential (ERP) component elicited in the process of decision making. It is considered to be an endogenous potential, as its occurrence links not to the physical attributes of a stimulus, but to a person's reaction to it. More specifically, the P300 is thought to reflect processes involved in stimulus evaluation or categorization. ERP target detection task is a direct measure of attention, speed of brain. processing, and simple behavioral performance. Psychometric measures (Cogstate) cognitive measures: Detection: processing speed (psychomotor function), Identification: reaction time (attention), One Back: working memory (cognition), One Card Learning: visual learning (visual memory), ISLT: verbal learning, ISLT-delay: verbal memory. Psychometric measures (MMSE): cognitive measures. Behavioral measures (ADCS-ADL): behavioral measures.

[2] = test system: mild-to-moderate AD patients; experiment: Hamilton Depression Rating Scale (HAM-D), open-label Phase 2a clinical trial; assay type: in vivo, human; details: for Insomnia HAM-D Q5 Middle Insomnia, Mean ± SD / Insomnia HAM-D Q6 Late Insomnia, Mean ± SD / Insomnia HAM-D Q4 Initial Insomnia, Mean ± SD: score 0-2; for Insomnia HAM-D Q5 Middle Insomnia, Mean ± SD: baseline 1.5 ± 0.7; for Insomnia HAM-D Q6 Late Insomnia, Mean ± SD: baseline 1.6 ± 0.5; for Insomnia HAM-D Q4 Initial Insomnia, Mean ± SD: baseline 2 ± 0.0
Description: Efficacy data is presented through 31 week from the randomized (into different treatment regimens) open-label study with ANAVEX 2-73 oral daily dosing ranging from 10 mg to 50 mg. The data establish a method for treating insomnia, anxiety, or agitation in a subject. Efficacy extends to daily doses of up to about 100 mg of […], A1-41 or A19-144. Note is made of doses of A2-73, A1-41 or A19-144 of about 10 mg to about 30 mg, about 20 mg to about 40 mg, about 50 mg to about 80 mg. Oral dosing daily or every other day is contemplated.
This is consistent with Table 1 showing a reduction in insomnia, anxiety, and other symptoms.
The data of Table 1 is from an open-label, clinical trial, performed on a group of 30 mild-to-moderate AD patients (MMSE range 16-23, 40% female) on donepezil treatment, with ANAVEX 2-73.

[3] = 30 mild-to-moderate AD patients on donepezil, open-label
[4] = 30 mild-to-moderate AD patients on donepezil, open-label, total 28 improvements

## CN(C)CC1CCOC1(c1ccccc1)c1ccccc1.Cl (centres unmarked) [A2-73, tetrahydro-N,N-dimethyl-2,2-diphenyl-3-furanmethanamine hydrochloride]
[1]; 5 Week
  False Alarms: 1.0 ± 0.5%
  Task Accuracy: 92.6 ± 2.4%
  Reaction Time: 492.6 ± 23.8 ms
[1]; 5 Week, daily 10 mg-50 mg
  P300 Amplitude: 7.09 ± 0.72 μV
[1]; 5 weeks, daily 10 mg-50 mg, FIG. 9
  All tested areas (ERP, Cogstate, MMSE, ADCS-ADL) vs starting baseline: improvement
[1]; 17 Week
  False Alarms: 1.2 ± 0.9%
  P300 Amplitude: 6.38 ± 0.61 μV
  Task Accuracy: 92.2 ± 3.9%
  Reaction Time: 498.8 ± 24.8 ms
[1]; 31 Week
  False Alarms: 2.6 ± 1.2%
  P300 Amplitude: 5.93 ± 0.77 μV
  Task Accuracy: 88.1 ± 4.4%
  Reaction Time: 521.8 ± 28.1 ms
[2]; [3]
  Scored Improvement Count, improved item of HAM-D: Agitation: 4
  Scored Improvement Count, improved item of HAM-D: Anxiety (psychic and somatic): 5
  Scored Improvement Count, improved item of HAM-D: Depressed: 4
  Scored Improvement Count, improved item of HAM-D: Guilt: 1
  Scored Improvement Count, improved item of HAM-D: Hypochondriasis: 2
  Scored Improvement Count, improved item of HAM-D: Insight: 3
  Scored Improvement Count, improved item of HAM-D: Insomnia: 8
  Scored Improvement Count, improved item of HAM-D: Loss of libido or other genital symptoms: 2
  Scored Improvement Count, improved item of HAM-D: Work and activities: 6
[2]; [4]
  Scored Improvement in [%], improved item of HAM-D: Agitation: 14%
  Scored Improvement in [%], improved item of HAM-D: Anxiety (psychic and somatic): 18%
  Scored Improvement in [%], improved item of HAM-D: Depressed: 14%
  Scored Improvement in [%], improved item of HAM-D: Guilt: 4%
  Scored Improvement in [%], improved item of HAM-D: Hypochondriasis: 7%
  Scored Improvement in [%], improved item of HAM-D: Insight: 11%
  Scored Improvement in [%], improved item of HAM-D: Insomnia: 29%
  Scored Improvement in [%], improved item of HAM-D: Loss of libido or other genital symptoms: 7%
  Scored Improvement in [%], improved item of HAM-D: Work and activities: 21%
[2]; Day 13
  Insomnia HAM-D Q5 Middle Insomnia, Mean ± SD: 1.0 ± 1.4
  Insomnia HAM-D Q6 Late Insomnia, Mean ± SD: 0.0 ± 0.0
  Insomnia HAM-D Q4 Initial Insomnia, Mean ± SD: 2 ± 0.0
[2]; Week 12/26
  Insomnia HAM-D Q5 Middle Insomnia, Mean ± SD: 0.0 ± 0.0
  Insomnia HAM-D Q6 Late Insomnia, Mean ± SD: 0.0 ± 0.0
  Insomnia HAM-D Q4 Initial Insomnia, Mean ± SD: 0.0 ± 0.0
[2]; after 31 weeks of dosing, FIG. 7
  Overall Hamilton Depression Rating Scale (HAM-D): reduction
[2]; baseline to week 12
  Changes in other behavioral items (HAM-D): not statistically significant
[2]; baseline to week 12, t=4.2, p<0.05, 30 AD patients, listed as ANAVEX 2-73, hydrochloride
  Subjective reports of insomnia (sleep items of HAM-D): marked insomnia improvements
[2]; sum over all improved HAM-D items
  Scored Improvement Count, improved items of HAM-D: Total: 28
